Target: T1, NADPH oxidase 1 (Homo sapiens, UniProt Q9Y5S8)
T1 sequence (Q9Y5S8 whole entry): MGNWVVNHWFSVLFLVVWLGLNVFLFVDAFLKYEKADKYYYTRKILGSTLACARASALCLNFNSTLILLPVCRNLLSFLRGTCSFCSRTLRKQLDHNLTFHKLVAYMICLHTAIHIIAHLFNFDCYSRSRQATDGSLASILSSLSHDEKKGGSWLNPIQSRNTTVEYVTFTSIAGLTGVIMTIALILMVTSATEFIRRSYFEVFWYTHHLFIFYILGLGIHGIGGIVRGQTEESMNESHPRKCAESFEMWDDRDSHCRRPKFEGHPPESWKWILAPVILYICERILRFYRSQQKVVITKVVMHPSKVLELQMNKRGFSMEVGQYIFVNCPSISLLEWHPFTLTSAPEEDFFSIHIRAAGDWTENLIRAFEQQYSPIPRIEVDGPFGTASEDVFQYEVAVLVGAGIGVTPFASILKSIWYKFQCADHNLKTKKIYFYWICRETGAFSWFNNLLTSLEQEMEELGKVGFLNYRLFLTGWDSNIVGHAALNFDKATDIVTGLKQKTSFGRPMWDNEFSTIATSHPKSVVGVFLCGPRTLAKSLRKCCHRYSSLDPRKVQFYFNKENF
Assay: XO enzyme superoxide output inhibition – biochemical, IC50, set 2, NOX1 inhibitor project, late-stage follow-up (AID 435009)

IC50 [µM]	Compound
> 50	CN(C)c1ccc(CN=Nc2c(Cl)cncc2Cl)cc1
> 50	Oc1c(Br)cc(CN=Nc2c(Cl)cncc2Cl)cc1Br [4-[[2-[3,5-bis(chloranyl)pyridin-4-yl]hydrazinyl]methylidene]-2,6-bis(bromanyl)cyclohexa-2,5-dien-1-one]

Source: BindingDB's records for doi:10.7270/Q2JD4V7Q (The Scripps Research Institute Molecular Screening Center, 2010)
